13 compounds from paper PMC4423475, “Structure-based discovery of the first non-covalent inhibitors of Leishmania major tryparedoxin peroxidase by high throughput docking” (Scientific Reports, 2015) can be followed below.

Structures are written as SMILES.

Experiment [1] concerns the target T1, LmTXNPx (Leishmania major, UniProt Q4QF76). In words: HRP-H2O2 competition assay (LmTXNPx inhibition assay). The experiment is classed as biochemical. The text has this:
To determine the ability of the selected compounds to inhibit the catalytic activity of LmTXNPx, we used the horseradish peroxidase (HRP)-H2O2 competition assay developed by Augusto and co-workers[16]. HRP is well known to react with H2O2 in a two-electron oxidation process that leads to the formation of HRP compound I (HRP-I), a stable HRP oxidized intermediate that can be followed at 398 nm. Reduced LmTXNPx competes with HRP for the H2O2 substrate, leading to a decrease in HRP-I yield that is proportional to LmTXNPx concentration. The addition of LmTXNPx inhibitors leads to a decrease in free LmTXNPx concentration and consequent increase in the HRP-I yield.
Competition kinetics have been performed for determining the activity of the compounds selected by HTD. The ability of the compounds to inhibit the H2O2 reduction by LmTXNPx has been determined by competition approach utilizing the well-known reactivity of H2O2 with horseradish peroxidase (HRP)[16][20][26]. HRP is a heme-containing peroxidase, which uses hydrogen peroxide (by reducing it to water) to oxidize different organic substrates to free radicals. The reaction takes place in three steps: • PFe(III) + H2O2 → P^·+Fe(IV) = O + H2O • P^·+Fe(IV) = O + X → X^• + PFe(IV) = O • PFe(IV) = O + X + 2H^+ → PFe(III) + X^· + H2O
Where PFe(III) is HRP (the native protein), P^·+Fe(IV) = O is the HRP compound I (HRP-I), PFe(IV) = O is the HRP compound II (HRP-II) and X is a generic substrate. The formation of HPR-I results in a change in light absorption in the visible range (Δε403 nm = 5.4 × 10^4 M^−1cm^−1). For kinetic studies the HRP oxidation is monitored at 398 nm (Δε398 nm = 4.2 × 10^4 M^−1cm^−1) instead of 403 nm (wavelength corresponding to the maximum of HRP absorbance) in order to avoid interferences arising from HRP-I reduction to HRP-II. This method is usually used to determine the second order rate constant of 2Cys- Peroxiredoxin reaction with hydrogen peroxide and peroxinitrite.
Thus, H2O2-mediated HRP oxidation is a two-electron oxidation process, leading to the formation of HRP-I, followed at 398 nm. The addition of increasing concentrations of pre-reduced LmTXNPx led to a lower yield in HRP-I since two reactions take place in solution: [drawing 1] [drawing 2]
Where I indicates the inhibitor and LmTXNPx-I indicates the complex between LmTXNPx and the inhibitor. The addition of active LmTXNPx inhibitors led to a decrease in the free LmTXNPx and the consequent recover in the HRP-I yield and therefore to a partial or total recover of the ΔA.
The HRP-based indirect kinetic assays to test the inhibitors was performed in the following way: HRP 2 μM was exposed to H2O2 0.25 μM in sodium phosphate buffer pH 7.4 and 25°C, either in the absence or in the presence of the indicated concentrations of reduced LmTXNPx and in the absence or in the presence of inhibitors. The relative changes in absorbance at 398 nm (ΔA/ΔA0), reflecting HRP-I formation, were determined.
(§1) The compounds ability to inhibit TXNPx has been evaluated by simply measuring the following ratio: ΔA/ΔA0 where ΔA0 is the difference in absorbance between HRP and compound I (ΔA0 = 0.04) and ΔA is the difference in absorbance between HRP and compound I in the presence of LmTXNPx and 100 μM inhibitors. All the compounds have been previously tested for their ability to inhibit HRP at a concentration of 100 μM.

In experiment [2] the target is T2, horseradish peroxidase (HRP) (Armoracia rusticana, UniProt P00433).
T2 sequence (P00433 31-353): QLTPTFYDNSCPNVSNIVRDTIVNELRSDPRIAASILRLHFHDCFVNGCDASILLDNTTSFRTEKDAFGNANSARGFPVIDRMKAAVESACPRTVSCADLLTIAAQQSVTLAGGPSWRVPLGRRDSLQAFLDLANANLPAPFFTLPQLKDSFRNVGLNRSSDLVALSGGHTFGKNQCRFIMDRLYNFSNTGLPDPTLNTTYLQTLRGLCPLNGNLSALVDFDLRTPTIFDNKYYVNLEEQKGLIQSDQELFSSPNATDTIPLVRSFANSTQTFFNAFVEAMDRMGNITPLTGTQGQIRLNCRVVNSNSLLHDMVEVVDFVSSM
In words: HRP inhibition control (compounds tested for their ability to inhibit HRP). The experiment is classed as biochemical. The settings on record: compound at 100 μM; for HRP inhibition: first series (HTD hits). On the procedure:
as §1

Experiment [3] concerns the target T1, LmTXNPx. The experiment in a line: Surface plasmon resonance, immobilized LmTXNPx. The experiment is classed as binding. The conditions noted are these: SPR, 1:1 steady-state affinity model. On the procedure: SPR experiments were carried out using a SensiQ Pioneer system (SensiQ, ICxNomadics Inc.). The interaction of the immobilized protein with the analytes was detected by mass concentration-dependent changes of the refractive index on the sensor chip surface. The changes in the observed SPR signal are expressed as Resonance Units (RU). Typically, a response change of 1000 RU corresponds to a change in the surface concentration on the sensor chip of about 1 ng of protein per mm^2.
The sensor chips (COOH5 SensiQ) were chemically activated by injection of 250 μl of a 1:1 mixture of N-hydroxysuccinimide (50 mM) and N-ethyl-N-(3-dimethylaminopropyl)carbodiimide (200 mM) at a flow rate of 25 μl/min. Recombinant LmTXNPx was immobilized on the activated sensor chip via amine coupling. The reaction was carried out at a rate of […] in 20 mM sodium acetate at pH 4.5; the remaining ester groups were blocked by injecting 100 μL of 1 M ethanolamine hydrochloride. Recombinant LmTXNPx was captured to approximately 2000 RU. The analytes were dissolved at a concentration of 10 mM or 20 mM in dimethylsulfoxide (DMSO), and diluted 1:100 in HEPES-buffered saline (HBS: 10 mM HEPES, pH 7.4; 150 mM NaCl; 0.005% surfactant P20).
FastStep injections of samples (100 or 200 μM analytes in HBS + 1% DMSO), and reference buffer (HBS + 1% DMSO) were performed: either the inhibitor and reference buffer were automatically diluted in HBS and injected by 7 serial doubling steps (step contact time = 15 s, nominal flow rate = 200 μl/min). The following analytes were injected: 0–17 s: analyte concentration = 3.12 μM; 17–33 s: 6.25 μM; 33–48 s: 12.5 μM; 48–62 s: 25 μM; 63–78 s: 50 μM; 78–93 s: 100 μM; 94–100 s: 200 μM; for each injection, a maximal RU value was obtained. In control experiments, the sensor chip was treated as described above in the absence of immobilized protein.
Each sensorgram is the average of three different experiments. Sensorgrams were subjected to global analysis using QDat software 2.2.0.23, and for each analyte concentration a % Response was calculated, allowing a local Rmax fit (according to the molecular weight of each compound) and displaying as a response relative to the Rmax. % Response vs. analyte concentration was plotted and a KD value was calculated for each analyte by fitting a simple 1:1 steady-state affinity model to the data.
For orientation: In SPR one partner is held on a chip, and binding of the other changes the refractive index at the surface.

The mark [4] stands for this setting: residual activity of HRP, HRP 2 μM, H2O2 0.25 μM, 2.5 μM LmTXNPx, 100 μM inhibitors, sodium phosphate buffer pH 7.4, 25°C.
Setting [5] is: first series (HTD hits), HRP 2 µM, H2O2 0.25 µM, 2.5 µM LmTXNPx, 100 µM inhibitors, pH 7.4, 25 °C.

T1 sequence (Q4QF76 entry or part of it): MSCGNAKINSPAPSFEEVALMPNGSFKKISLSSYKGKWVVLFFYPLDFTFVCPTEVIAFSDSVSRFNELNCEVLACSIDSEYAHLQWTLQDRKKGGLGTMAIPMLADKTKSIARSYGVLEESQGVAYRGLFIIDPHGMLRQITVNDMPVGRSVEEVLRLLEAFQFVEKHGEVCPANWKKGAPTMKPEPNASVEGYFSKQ

`COc1cc2cc(CN(Cc3ccc(F)cc3)Cc3nnnn3Cc3cccc(N)c3)c(=O)[nH]c2cc1OC` [Compound 3, 3-((((1-(3-Aminobenzyl)-1H-tetrazol-5-yl)methyl)(4-fluorobenzyl)amino)methyl)-6,7-dimethoxyquinolin-2(1H)-one]: the “(ΔA/ΔA0) × 100” value in experiment [1] (setting [4]) is given as 44 ± 6%. Moreover, the HRP inhib. entry in experiment [2] is “No”. Further, the equilibrium dissociation constant (Kd) – broadly, the concentration at which binding is half-saturated – in experiment [3] came out at 354 ± 12 µM.

`COc1cc2cc(CN(Cc3ccc(F)cc3)Cc3nnnn3Cc3ccccc3)c(=O)[nH]c2cc1OC` [Compound 1, 3-((((1-Benzyl-1H-tetrazol-5-yl)methyl)(4-fluorobenzyl)amino)methyl)-6,7-dimethoxyquinolin-2(1H)-one]: in experiment [1] (setting [5]), the “(ΔA/ΔA0) × 100” value was 47 ± 6%. Moreover, in experiment [1] (setting [4]), the “(ΔA/ΔA0) × 100” value came out at 52 ± 10%. In addition, in experiment [2], the HRP inhib. result was “No” and the HRP inhibition result is “No”. Also, binding in experiment [3] was put at a Kd of 290 ± 13 µM.

With `COc1ccc2[nH]c(=O)c(CN(Cc3ccc(F)cc3)Cc3nnnn3Cc3ccccc3)cc2c1` [Compound 7, 3-((((1-Benzyl-1H-tetrazol-5-yl)methyl)(4-fluorobenzyl)amino)methyl)-6-methoxyquinolin-2(1H)-one], the “(ΔA/ΔA0) × 100” value in experiment [1] (setting [4]) amounted to 60 ± 7%. Besides, the HRP inhib. entry in experiment [2] is “No”. Further, in experiment [3], the Kd stood at 47 ± 1 µM.

As for `CCOC(=O)Cc1csc(NC(=O)CSc2nc(C(C)C)nc3sc(C)c(C)c23)n1` [NF2013], the HRP inhibition entry in experiment [2] is “Yes”.

Turning to `O=C(Nc1cc(C(=O)Nc2ccc(S(=O)(=O)[O-])c3cc(S(=O)(=O)[O-])cc(S(=O)(=O)[O-])c23)cc(C(=O)Nc2ccc(S(=O)(=O)[O-])c3cc(S(=O)(=O)[O-])cc(S(=O)(=O)[O-])c23)c1)Nc1cc(C(=O)Nc2ccc(S(=O)(=O)[O-])c3cc(S(=O)(=O)[O-])cc(S(=O)(=O)[O-])c23)cc(C(=O)Nc2ccc(S(=O)(=O)[O-])c3cc(S(=O)(=O)[O-])cc(S(=O)(=O)[O-])c23)c1.[Na+].[Na+].[Na+].[Na+].[Na+].[Na+].[Na+].[Na+].[Na+].[Na+].[Na+].[Na+]` [NF864], in experiment [1] (setting [5]), the “(ΔA/ΔA0) × 100” value worked out at 16 ± 6%. The HRP inhibition entry in experiment [2] is given as “No”.

On to `COc1cc2cc(CN(Cc3ccc(F)cc3)Cc3nnnn3Cc3cccc([N+](=O)[O-])c3)c(=O)[nH]c2cc1OC` [Compound 2, 3-(((4-Fluorobenzyl)((1-(3-nitrobenzyl)-1H-tetrazol-5-yl)methyl)amino)methyl)-6,7-dimethoxyquinolin-2(1H)-one], for which the “(ΔA/ΔA0) × 100” value in experiment [1] (setting [4]) was determined as 37 ± 9%. In experiment [2], the HRP inhib. entry is on record as “No”. For the same compound, the Kd in experiment [3] came out at 172 ± 6 µM.

With `COc1cc2cc(CN(Cc3ccc(F)cc3)Cc3nnnn3Cc3cccc(N(C)C)c3)c(=O)[nH]c2cc1OC` [Compound 4, 3-((((1-(3-(Dimethylamino)benzyl)-1H-tetrazol-5-yl)methyl)(4-fluorobenzyl)amino)methyl)-6,7-dimethoxyquinolin-2(1H)-one], the Kd in experiment [3] turned out to be 156 ± 5 µM.

As to `COc1cc2cc(CN(Cc3ccc(Br)cc3)Cc3nnnn3Cc3ccccc3)c(=O)[nH]c2cc1OC` [Compound 11, 3-((((1-Benzyl-1H-tetrazol-5-yl)methyl)(4-bromobenzyl)amino)methyl)-6,7-dimethoxyquinolin-2(1H)-one], the “(ΔA/ΔA0) × 100” value in experiment [1] (setting [4]) stood at 37 ± 20%. Moreover, the HRP inhib. entry in experiment [2] was “No”. This compound also yielded an equilibrium dissociation constant (Kd) in experiment [3] of 112 ± 4 µM.

In the case of `COc1cc2cc(CN(Cc3nnnn3Cc3ccccc3)CC34CC5CC(CC(C5)C3)C4)c(=O)[nH]c2cc1OC` [Compound 12, 3-((((1-Benzyl-1H-tetrazol-5-yl)methyl)(1-adamantylmethyl)amino)methyl)-6,7-dimethoxyquinolin-2(1H)-one], in experiment [1] (setting [4]), the “(ΔA/ΔA0) × 100” value was determined as 93 ± 6%. Besides, the HRP inhib. result in experiment [2] is “No”. In addition, the Kd in experiment [3] amounted to 39 ± 1 µM.

As for `COc1cc2cc(CN(Cc3ccccc3)Cc3nnnn3Cc3ccccc3)c(=O)[nH]c2cc1OC` [Compound 9, 3-((((1-Benzyl-1H-tetrazol-5-yl)methyl)benzylamino)methyl)-6,7-dimethoxyquinolin-2(1H)-one], in experiment [2], the HRP inhib. result is “Yes”. In addition, in experiment [3], the Kd was 74 ± 3 µM.

For `COc1cc2cc(CN(Cc3ccc(Cl)cc3)Cc3nnnn3Cc3ccccc3)c(=O)[nH]c2cc1OC` [Compound 10, 3-((((1-Benzyl-1H-tetrazol-5-yl)methyl)(4-chlorobenzyl)amino)methyl)-6,7-dimethoxyquinolin-2(1H)-one], the HRP inhib. result in experiment [2] is recorded as “Yes”. In experiment [3], this compound displayed a Kd of 63 ± 3 µM.

In the case of `COc1cc2cc(CN(Cc3ccc(F)cc3)Cc3nnnn3Cc3cccc(I)c3)c(=O)[nH]c2cc1OC` [Compound 5, 3-(((4-Fluorobenzyl)((1-(3-iodobenzyl)-1H-tetrazol-5-yl)methyl)amino)methyl)-6,7-dimethoxyquinolin-2(1H)-one], the “(ΔA/ΔA0) × 100” value in experiment [1] (setting [4]) was 71 ± 6%. The HRP inhib. result in experiment [2] is “No”. The same compound returned a dissociation constant (Kd) in experiment [3] of 281 ± 11 µM.

Regarding `O=c1[nH]c2ccccc2cc1CN(Cc1ccc(F)cc1)Cc1nnnn1Cc1ccccc1` [Compound 8, 3-((((1-Benzyl-1H-tetrazol-5-yl)methyl)(4-fluorobenzyl)amino)methyl)quinolin-2(1H)-one], in experiment [1] (setting [4]), the “(ΔA/ΔA0) × 100” value was 45 ± 15%. In experiment [2], the HRP inhib. result is “No”. In experiment [3], this compound came in with a Kd of 104 ± 4 µM.
